In the supplement of paper PMC10307832:

Experiments:
Experiment in all cases: relative viability (nuclei count vs DMSO), 5 days (fraction); higher = more cells survive
Midostaurin + Foretinib = compound: CO[C@@H]1[C@H](N(C)C(=O)c2ccccc2)C[C@H]2O[C@]1(C)n1c3ccccc3c3c4c(c5c6ccccc6n2c5c31)C(=O)NC4 [Midostaurin] + COc1cc2c(Oc3ccc(NC(=O)C4(C(=O)Nc5ccc(F)cc5)CC4)cc3F)ccnc2cc1OCCCN1CCOCC1 [Foretinib] (partner 0.25 µM)
Procedure, shortened: (§1)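 Nuclei were stained with Hoechst during a one-step fixation (final 0.05% Triton X-100, 1% formaldehyde, 1 ug/ml Hoechst) carried out 5 days after dosing, then counted on 4× images. The cells, lung cancer lines in 1536-well plates, had been dosed by pin tool the day after seeding with one drug alone or a fixed anchor-drug dose plus five library-drug doses (not always all listed) in √10 steps. Relative viability is the nuclei count in treated wells divided by that in vehicle wells, and each value is the median of duplicate plates.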

Midostaurin + Lapatinib = compound: CO[C@@H]1[C@H](N(C)C(=O)c2ccccc2)C[C@H]2O[C@]1(C)n1c3ccccc3c3c4c(c5c6ccccc6n2c5c31)C(=O)NC4 [Midostaurin] + CS(=O)(=O)CCNCc1ccc(-c2ccc3ncnc(Nc4ccc(OCc5cccc(F)c5)c(Cl)c4)c3c2)o1 [Lapatinib] (partner 2 µM)
Procedure, shortened: as §1

Midostaurin + Decitabine = compound: CO[C@@H]1[C@H](N(C)C(=O)c2ccccc2)C[C@H]2O[C@]1(C)n1c3ccccc3c3c4c(c5c6ccccc6n2c5c31)C(=O)NC4 [Midostaurin] + Nc1ncn([C@H]2C[C@H](O)[C@@H](CO)O2)c(=O)n1 [Decitabine] (partner 2 µM)
Procedure, shortened: as §1

[1] = compound: COc1cc(-c2nn([C@H]3CC[C@H](N4CCN(C(C)=O)CC4)CC3)c3ncnc(N)c23)ccc1NC(=O)c1cc2ccccc2n1C + CC1(C)CCC(c2ccc(Cl)cc2)=C(CN2CCN(c3ccc(C(=O)NS(=O)(=O)c4ccc(N[C@H](CCN5CCOCC5)CSc5ccccc5)c(S(=O)(=O)C(F)(F)F)c4)cc3)CC2)C1 [Navitoclax] (partner 0.5 µM)
Procedure, shortened: as §1

[2] = compound: COc1cc(-c2nn([C@H]3CC[C@H](N4CCN(C(C)=O)CC4)CC3)c3ncnc(N)c23)ccc1NC(=O)c1cc2ccccc2n1C + Nc1ncn([C@H]2C[C@H](O)[C@@H](CO)O2)c(=O)n1 [Decitabine] (partner 2 µM)
Procedure, shortened: as §1

Cell Line	relative viability (Midostaurin + Foretinib; first compound 0.01 µM)	relative viability (Midostaurin + Foretinib; first compound 0.03162 µM)	relative viability (Midostaurin + Foretinib; first compound 0.1 µM)	relative viability (Midostaurin + Foretinib; first compound 0.3162 µM)	relative viability (Midostaurin + Lapatinib; first compound 0.01 µM)	relative viability (Midostaurin + Lapatinib; first compound 0.03162 µM)	relative viability (Midostaurin + Lapatinib; first compound 0.1 µM)	relative viability (Midostaurin + Lapatinib; first compound 0.3162 µM)	relative viability (Midostaurin + Decitabine; first compound 0.01 µM)	relative viability (Midostaurin + Decitabine; first compound 0.03162 µM)	relative viability (Midostaurin + Decitabine; first compound 0.1 µM)	relative viability (Midostaurin + Decitabine; first compound 0.3162 µM)	relative viability ([1]; first compound 0.0128 µM)	relative viability ([1]; first compound 0.04048 µM)	relative viability ([1]; first compound 0.128 µM)	relative viability ([1]; first compound 1.28 µM)	relative viability ([2]; first compound 0.0128 µM)	relative viability ([2]; first compound 0.04048 µM)	relative viability ([2]; first compound 0.128 µM)	relative viability ([2]; first compound 1.28 µM)
LC-2-ad	0.919	0.897	0.914	1.04	0.989	0.956	0.982	0.855	0.672	0.751	0.699	0.763	0.509	0.429	0.473	0.389	0.818	0.778	0.723	0.854
LCLC-97TM1	1	0.937	0.817	0.913	0.73		0.846	1.12	0.215	0.239	0.25	0.242	0.464	0.388	0.385	0.389	0.295	0.224	0.257	0.235
LK-2	1.19	1.36	0.955	1.13	0.916	0.901	0.921	0.822	0.262	0.272	0.405	0.299	1.04	0.861	0.621	0.685	0.339	0.253	0.288	0.248
LOU-NH91	0.976	0.903	1.01	1.01	0.736	0.736	0.811	0.924	0.783	0.781	0.835	0.798	0.658	0.661	0.768	0.638	0.792	0.898	0.842	0.804
LU99A	0.708	0.854	0.695	0.783	0.983	1.04	1.02	0.993	0.912	0.948	0.657	0.594	0.854	0.842	0.773	0.815	0.808	0.601	0.949	0.994
LXF-289	0.967	0.941	0.897	0.988	0.92	0.888	0.866	0.951	0.394	0.339	0.342	0.401	1.01	0.886	0.967	0.959	0.419	0.368	0.369	0.362
NCI-H23	0.685	1.23	0.648	0.531	1.05	1	1	0.949	0.302	0.368	0.308	0.249	0.825	0.549	0.716	0.77	0.283	0.291	0.291	0.298
NCI-H322M	1.04	0.923	1.07	1.14	0.621	0.465	0.627	0.695	0.638	0.673	0.651	0.715	1.36	1.09	1.18	1.12	0.659	0.682	0.648	0.63
NCI-H460	1.02	0.932	1	0.95	0.839	1.03	0.971	0.936	0.491	0.526	0.53	0.638	1.2	1.41	1.03	0.862	0.495	0.452	0.451	0.433
NCI-H520	0.68	0.715	0.661	0.688	0.866	0.942	0.762	0.781	0.498	0.501	0.514	0.427	1.16	1.06	0.995	0.861	0.508	0.502	0.436	0.368
NCI-H596	0.816	0.969	0.723	0.896	1.21	1.12	1.13	1.34	1.1	1.11	1.07	1.12	1.06	1.02	0.911	0.525	1.33	1.18	0.89	0.716
NCI-H647	1.14	1.2	1.2	1.14	0.932	1.12	0.768	0.646	0.405	0.433	0.346	0.374	1.29	1.18	1.06	0.669	0.451	0.424	0.406	0.364
NCI-H727	1.11	0.932	0.829	0.846	1.02	0.739	0.91	0.728	0.88	0.911	0.925	0.932	0.408		0.463	0.289	0.925		1.01	0.84
NCI-H838	1.05	0.939	0.759	0.497	0.955	0.92	0.897	0.452	0.478	0.447	0.385	0.328	1.26	1.18	1.23	0.859	0.484	0.505	0.518	0.432
NCI-H1355	1.02	0.913	0.817	0.971	0.979	0.959	1.08	1.09	0.361	0.386	0.346	0.348	1.02	0.923	0.928	0.967	0.332	0.35	0.338	0.372
NCI-H1395	1.12	1.07	0.992	1.1	1.04	1.12	0.912	1.3	0.681	0.81	0.712	0.702	0.963	1.26	1.16	0.881	0.753	0.748	0.77	0.533
NCI-H1437	1.26	1.09	1.22	1.22	0.808	0.848	0.773	0.882	0.579	0.607	0.561	0.53	1.09	1.1	1.05	1.02	0.576	0.6	0.558	0.599
NCI-H1650	1.16	1.11	0.911	1.19	0.757	0.791	0.878	0.581	0.352	0.418	0.426	0.517	1.34	1.5	1.44	1.1	0.49	0.497	0.341	0.515
NCI-H1651	0.882	0.819	0.764	0.683	0.74	0.931	0.787	1.05	0.612	0.596	0.696	0.649	1.09	1.07	1.07	0.963	0.587	0.654	0.605	0.438
NCI-H1666	0.881	0.954	0.786	0.754	0.74	0.617	0.81	0.634	0.719	0.684	0.777	0.716	0.883	0.805	0.806	0.955	0.71	0.673	0.758	0.66
NCI-H1734	0.878	0.739	0.866	0.679	1.01	1.1	1.07	1.12	0.508	0.499	0.486	0.521	0.879	0.719	0.744	0.736	0.521	0.468	0.516	0.479
NCI-H1755	0.944	0.848	0.787	0.628	1.03	0.976	0.903	0.917	0.778	0.684	0.715	0.739	1.09	1.01	0.927	0.803	0.768	0.738	0.699	0.611
NCI-H1793	0.674	0.644	0.533	0.369	0.971	0.715	0.767	0.75	0.484	0.551	0.493	0.359	0.5	0.571	0.332	0.258	0.55	0.468	0.509	0.364
NCI-H1915	1.1	0.993	1.04	1.09	0.865	0.972	0.956	1.04	0.264	0.26	0.255	0.255	0.851	0.755	0.758	0.706	0.293	0.244	0.264	0.262
NCI-H1944	0.893	0.899	0.711	0.853	0.783	0.794	0.898	0.977	0.463	0.439	0.375	0.394	1.04	0.999	0.982	0.764	0.483	0.371	0.456	0.451
NCI-H1975	0.925	1.01	0.952	0.647	0.82	0.893	0.871	0.665	0.368	0.446	0.366	0.363	1.11	1.17	1.08	0.697	0.406	0.33	0.376	0.235
NCI-H1993	0.863	0.761	0.765	0.935	0.831	0.805	0.809	0.79	0.541	0.607	0.693	0.576	0.898	0.886	0.873	0.709	0.632	0.575	0.681	0.617
